# According to patent US10597388B2, “Pyridazinone herbicides” (FMC CORPORATION, priority 2014, dated 2020):
# Legend:
# Format in all cases: in vivo
# [1] = test system: barnyardgrass (Echinochloa crus-galli); assay: Test C greenhouse herbicide test, pre- and postemergence
# In short: (§1)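 Two application timings: at sowing into a soil/sand blend, and on 2–18 cm seedlings in peat-vermiculite potting mix. A non-phytotoxic, surfactant-containing solvent carried the compounds. Plants were compared with controls and rated visually on 0–100 after 13–15 d.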
# [2] = test system: blackgrass (Alopecurus myosuroides); assay: as above
# In short: as §1
# corn (Zea mays) = assay: as above
# In short: as §1
# [3] = test system: crabgrass, large (large crabgrass, Digitaria sanguinalis); assay: as above
# In short: as §1
# [4] = test system: foxtail, giant (giant foxtail, Setaria faberii); assay: as above; conditions: Postemergence
# In short: as §1
# [5] = test system: galium (catchweed bedstraw, Galium aparine); assay: as above
# In short: as §1
# [6] = test system: johnsongrass (Sorghum halepense); assay: as above
# In short: as §1
# [7] = test system: morningglory (Ipomoea coccinea); assay: as above
# In short: as §1
# [8] = test system: oilseed rape (Brassica napus); assay: as above
# In short: as §1
# [9] = test system: pigweed (Amaranthus retroflexus); assay: as above
# In short: as §1
# [10] = test system: ragweed (common ragweed, Ambrosia elatior); assay: as above
# In short: as §1
# soybean (Glycine max) = assay: as above
# In short: as §1
# [11] = test system: velvetleaf (Abutilon theophrasti); assay: as above
# In short: as §1
# [12] = test system: waterhemp (common waterhemp, Amaranthus rudis); assay: as above
# In short: as §1
# [13] = test system: wheat (winter wheat, Triticum aestivum); assay: as above
# In short: as §1
# kochia (Kochia scoparia) = assay: Test C greenhouse herbicide test, postemergence; conditions: Postemergence
# In short: (§2)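 Postemergence foliar treatment, 1- to 4-leaf stage (2–18 cm), peat/vermiculite medium; greenhouse 13–15 d; visual rating vs controls, 0 = no effect, 100 = complete control; dash = no result.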
# [14] = test system: oat, wild (wild oat, Avena fatua); assay: Test C greenhouse herbicide test, postemergence; conditions: Postemergence
# In short: as §2
# [15] = Postemergence, 31 g ai/ha, scale 0 to 100 (0 no effect, 100 complete control)
# [16] = Postemergence, 125 g ai/ha, scale 0 to 100, 0 is no effect, 100 is complete control
# [17] = Postemergence, 250 g ai/ha, scale 0 to 100, 0 no effect, 100 complete control, 13 to 15 d
# [18] = Preemergence, 31 g ai/ha, scale 0 to 100, 0 is no effect, 100 is complete control
# [19] = Preemergence, 62 g ai/ha, scale 0 to 100, 0 is no effect, 100 is complete control
# [20] = Preemergence, 125 g ai/ha, scale 0 to 100, 0 is no effect, 100 is complete control
# [21] = Preemergence, 250 g ai/ha, scale 0 to 100 (0 no effect, 100 complete control)
# [22] = postemergence, 62 g ai/ha, scale 0 to 100, 0 no effect, 100 complete control
# [23] = 31 g ai/ha, scale 0 to 100 (0 no effect, 100 complete control)
# [24] = 125 g ai/ha, scale 0 to 100, 0 is no effect, 100 is complete control
# [25] = 250 g ai/ha, scale 0 to 100, 0 no effect, 100 complete control, 13 to 15 d
structure (smiles),measurement,setting,value
Cc1sc2ccc(Cl)cc2c1-c1c(OS(C)(=O)=O)c(Cl)nn(C)c1=O [Compound 114],"Plant response rating, Barnyardgrass",[1]; [15],30
same,"Plant response rating, Barnyardgrass",[1]; [16],40
same,"Plant response rating, Barnyardgrass",[1]; [17],40
same,"Plant response rating, Barnyardgrass",[1]; [18],5
same,"Plant response rating, Barnyardgrass",[1]; [19],10
same,"Plant response rating, Barnyardgrass",[1]; [20],60
same,Barnyardgrass plant response rating,[1]; [21],95
same,Barnyardgrass plant response rating,[1]; [22],35
same,"Plant response rating, Blackgrass",[2]; [15],0
same,"Plant response rating, Blackgrass",[2]; [16],5
same,"Plant response rating, Blackgrass",[2]; [17],15
same,"Plant response rating, Blackgrass",[2]; [18],0
same,"Plant response rating, Blackgrass",[2]; [19],5
same,"Plant response rating, Blackgrass",[2]; [20],5
same,Blackgrass plant response rating,[2]; [21],10
same,Blackgrass plant response rating,[2]; [22],0
same,"Plant response rating, Corn",corn (Zea mays); [15],0
same,"Plant response rating, Corn",corn (Zea mays); [16],0
same,"Plant response rating, Corn",corn (Zea mays); [17],0
same,"Plant response rating, Corn",corn (Zea mays); [18],0
same,"Plant response rating, Corn",corn (Zea mays); [19],5
same,"Plant response rating, Corn",corn (Zea mays); [20],5
same,Corn plant response rating,corn (Zea mays); [21],5
same,Corn plant response rating,corn (Zea mays); [22],0
same,"Plant response rating, Crabgrass, Large",[3]; [15],10
same,"Plant response rating, Crabgrass, Large",[3]; [16],20
same,"Plant response rating, Crabgrass, Large",[3]; [17],25
same,"Plant response rating, Crabgrass, Large",[3]; [18],0
same,"Plant response rating, Crabgrass, Large",[3]; [19],5
same,"Plant response rating, Crabgrass, Large",[3]; [20],75
same,"Crabgrass, Large plant response rating",[3]; [21],80
same,"Crabgrass, Large plant response rating",[3]; [22],20
same,"Plant response rating, Foxtail, Giant",[4]; [23],10
same,"Plant response rating, Foxtail, Giant",[4]; [24],50
same,"Plant response rating, Foxtail, Giant",[4]; [25],85
same,"Plant response rating, Galium",[5]; [15],95
same,"Plant response rating, Galium",[5]; [16],95
same,"Plant response rating, Galium",[5]; [17],95
same,"Plant response rating, Galium",[5]; [18],98
same,"Plant response rating, Galium",[5]; [19],98
same,"Plant response rating, Galium",[5]; [20],100
same,Galium plant response rating,[5]; [21],100
same,"Plant response rating, Johnsongrass",[6]; [15],5
same,"Plant response rating, Johnsongrass",[6]; [16],5
same,"Plant response rating, Johnsongrass",[6]; [17],15
same,"Plant response rating, Johnsongrass",[6]; [18],0
same,"Plant response rating, Johnsongrass",[6]; [19],0
same,"Plant response rating, Johnsongrass",[6]; [20],0
same,Johnsongrass plant response rating,[6]; [21],0
same,"Plant response rating, Morningglory",[7]; [15],95
same,"Plant response rating, Morningglory",[7]; [16],100
same,"Plant response rating, Morningglory",[7]; [17],100
same,"Plant response rating, Morningglory",[7]; [18],25
same,"Plant response rating, Morningglory",[7]; [19],55
same,"Plant response rating, Morningglory",[7]; [20],75
same,Morningglory plant response rating,[7]; [21],90
same,"Plant response rating, Oilseed Rape",[8]; [15],15
same,"Plant response rating, Oilseed Rape",[8]; [16],40
same,"Plant response rating, Oilseed Rape",[8]; [17],80
same,"Plant response rating, Oilseed Rape",[8]; [18],30
same,"Plant response rating, Oilseed Rape",[8]; [19],98
same,"Plant response rating, Oilseed Rape",[8]; [20],100
same,Oilseed Rape plant response rating,[8]; [21],100
same,"Plant response rating, Pigweed",[9]; [15],80
same,"Plant response rating, Pigweed",[9]; [16],95
same,"Plant response rating, Pigweed",[9]; [17],95
same,"Plant response rating, Pigweed",[9]; [18],98
same,"Plant response rating, Pigweed",[9]; [19],90
same,"Plant response rating, Pigweed",[9]; [20],100
same,Pigweed plant response rating,[9]; [21],100
same,"Plant response rating, Ragweed",[10]; [15],90
same,"Plant response rating, Ragweed",[10]; [16],98
same,"Plant response rating, Ragweed",[10]; [17],100
same,"Plant response rating, Ragweed",[10]; [18],55
same,"Plant response rating, Ragweed",[10]; [19],75
same,"Plant response rating, Ragweed",[10]; [20],95
same,Ragweed plant response rating,[10]; [21],98
same,"Plant response rating, Soybean",soybean (Glycine max); [15],0
same,"Plant response rating, Soybean",soybean (Glycine max); [16],0
same,"Plant response rating, Soybean",soybean (Glycine max); [17],5
same,"Plant response rating, Soybean",soybean (Glycine max); [18],0
same,"Plant response rating, Soybean",soybean (Glycine max); [19],0
same,"Plant response rating, Soybean",soybean (Glycine max); [20],20
same,"Plant response rating, Velvetleaf",[11]; [15],25
same,"Plant response rating, Velvetleaf",[11]; [16],55
same,"Plant response rating, Velvetleaf",[11]; [17],85
same,"Plant response rating, Velvetleaf",[11]; [18],45
same,"Plant response rating, Velvetleaf",[11]; [19],60
same,"Plant response rating, Velvetleaf",[11]; [20],85
same,Velvetleaf plant response rating,[11]; [21],100
same,"Plant response rating, Waterhemp",[12]; [15],25
same,"Plant response rating, Waterhemp",[12]; [16],55
same,"Plant response rating, Waterhemp",[12]; [17],45
same,"Plant response rating, Waterhemp",[12]; [18],50
same,"Plant response rating, Waterhemp",[12]; [19],75
same,"Plant response rating, Waterhemp",[12]; [20],65
same,Waterhemp plant response rating,[12]; [21],80
same,"Plant response rating, Wheat",[13]; [15],0
same,"Plant response rating, Wheat",[13]; [16],5
same,"Plant response rating, Wheat",[13]; [17],15
same,"Plant response rating, Wheat",[13]; [18],0
same,"Plant response rating, Wheat",[13]; [19],0
same,"Plant response rating, Wheat",[13]; [20],5
same,Wheat plant response rating,[13]; [21],35
same,"Plant response rating, Kochia",kochia (Kochia scoparia); [23],30
same,"Plant response rating, Kochia",kochia (Kochia scoparia); [24],90
same,"Plant response rating, Kochia",kochia (Kochia scoparia); [25],95
same,"Plant response rating, Oat, Wild",[14]; [23],40
same,"Plant response rating, Oat, Wild",[14]; [24],65
same,"Plant response rating, Oat, Wild",[14]; [25],85
